Data on five compounds can be found in US20260151538A1, “DIFFERENTIATION AND REPROGRAMMING OF CHONDROCYTE” (ADA Forsyth Institute, Inc., priority 2022, published 2026).

One assay concerns ATDC5 cells. Put plainly: ATDC5 micro-mass culture chondrogenesis, alcian blue staining. The class given is cell-based, mouse. The conditions noted are these: ATDC5 cells in micro-mass culture; DHA at 0, 1, 5, 25 and 125 μM; quantified with ImageJ. The text has this:
To further investigate the beneficial effects of GATA3 stimulation on cartilage regeneration, the inventors examined GATA3 activators in chondrogenesis. Using the ATDC5 cell line derived from mouse teratocarcinoma (undifferentiated embryonal carcinoma that can give rise to all three germ layers), the inventors first cultured the cells in micro-mass followed by differentiation into chondrocytes. Next, the inventors testes if the addition of GATA3 activators to the micro-mass culture could promote chondrogenesis. Staining was then performed to detect chondrogenic cells, which were positive for alcian blue. Imaging and quantitative analysis was then carried out to determine the percentage of the positively stained area using ImageJ.

For the next assay, the system named is GATA3. The conditions noted are these: literature reports (Attakpa 2009; Gocke 2009; Ahmad 2017); cited from earlier work.

The structures appear in SMILES notation.

For `Cc1ccc(C)c(OCCCC(C)(C)C(=O)O)c1` [Gemfibrozil], in the assay on ATDC5 cells, the “chondrocyte differentiation / chondrogenesis (percentage of alcian blue positively stained area)” value is “substantial stimulated effects on chondrogenesis”. For the same compound, the “GATA3 expression (transcripts and proteins)” value (shortened to “GATA3 expression”) with GATA3 was “enhance GATA3 expression”.
Take `Cc1cccc(Nc2cc(Cl)nc(SCC(=O)O)n2)c1C` [Pirinixic acid]: the “chondrocyte differentiation / chondrogenesis (percentage of alcian blue positively stained area)” value in the assay on ATDC5 cells is given as “substantial stimulated effects on chondrogenesis”. Also, the “GATA3 expression” value in the assay with GATA3 is given as “enhance GATA3 expression”.
Take `Oc1ccc(-c2nc(-c3ccncc3)c(-c3ccc(F)cc3)[nH]2)cc1` [SB202190]: the “chondrocyte differentiation / chondrogenesis (percentage of alcian blue positively stained area)” value in the assay with ATDC5 cells is “substantial stimulated effects on chondrogenesis”. Besides, the “GATA3 expression” value in the assay on GATA3 is listed as “enhance GATA3 expression”.
`Nc1nc2c(cnn2CCc2ccccc2)c2nc(-c3ccco3)nn12` [SCH 58261]: the “GATA3 expression” value in the assay on GATA3 is “enhance GATA3 expression”.
Consider `N#CC(=C(/N)Sc1ccccc1N)/C(C#N)=C(\N)Sc1ccccc1N` [U0126], for which, in the assay with GATA3, the “GATA3 expression” value is given as “enhance GATA3 expression”.
